# Assay results as given in patent publication US12473250B2, “Molecular design of new antibiotics and antibiotic adjuvants against MCR strains” (priority 2019, dated 2025).
# Key:
# Format in all cases: cell-based
# [1] = tested on: colistin resistant MCR (+) E. Coli strains; assay: Synergy study: colistin MIC in the presence of compound; details: for synergy with colistin: in words
# Method: (§1) The MICs of the individual drugs and LC compound in combinations were determined using the broth microdilution technique as recommended by the CLSI whereby the two anti-microbial agents were added in an equal amount. (e.g.: 50 μL of Colistin: 50 μL of LC compounds). Diluted media containing compounds and antibiotics will be serially diluted 2-fold, and LC compounds and antibiotics alone or in combination will be assayed at fixed synergy concentration. In all cases, the lowest concentration at which no visible growth occurred was be recorded to be the MIC value of individual and combined antibacterial agents. The results were obtained after 24 hours of incubation.
# [2] = tested on: colistin resistant MCR (+) E. Coli strains; assay: MIC, broth microdilution, compound alone; details: for MIC: compound alone
# Method: (§2) MIC experiments of the antimicrobial agents were determined by a modified broth microdilution method in accordance with the Clinical and Laboratory Standards Institute (CLSI) guidelines using 96 well culture plates. In brief, serial dilutions of all plates were prepared at different concentrations (μg). The inoculum suspension was prepared by adding isolated colonies from a 18-20 hours on TSA plate into phosphate buffer (0.31 mM, pH 7.2) or in water for injection (BBraun) and adjusting the suspension to a turbidity equivalent to 0.5 McFarland Standard. Each well contained a final bacterial concentration of approximately 5×10^5 colony forming units (CFU)/mL. The plate was covered and incubated at 35° C. for 24 hours. […] For the microdilution plates, turbidity in wells can be measured at OD600 using TECAN infinite M200Pro. MIC was determined as […] concentration that gives a 99 percent inhibition.
# [3] = tested on: colistin resistant MCR (−) E. Coli strains; assay: Synergy study: colistin MIC in the presence of compound
# Method: as §1
# [4] = tested on: colistin resistant MCR (−) E. Coli strains; assay: MIC, broth microdilution, compound alone
# Method: as §2
# [5] = strain 7028444207 (Table 1b), MCR (+)
# [6] = strain 6083672926, MCR(−), compound at 5 μg (Table 2a: 5 ug/ml)
# [7] = strain 7023446108, MCR(−), compound at 5 μg (Table 2a: 5 ug/ml)
# [8] = strain 7033607097, MCR(−), compound at 5 μg (Table 2a: 5 ug/ml)
# [9] = strain 6075066346, MCR(+), compound at 5 μg (Table 2a: 5 ug/ml)
# [10] = strain 6083655967, MCR(+), compound at 5 μg (Table 2a: 5 ug/ml)
# [11] = strain 7103531927, MCR(+), compound at 5 μg
Structure (SMILES),"MIC ([2]; strain 6075066346, MCR (+)) [µg/mL]","MIC ([2]; strain 6083655967, MCR (+)) [µg/mL]","Colistin MIC in the presence of the compound [3, 6] [µg/mL]","Colistin MIC in the presence of the compound [3, 7] [µg/mL]","Colistin MIC in the presence of the compound [3, 8] [µg/mL]","MIC ([2]; strain 7103531927, MCR (+)) [µg/mL]","MIC ([4]; strain 6083672926, MCR (−)) [µg/mL]","MIC ([4]; strain 7023446108, MCR (−)) [µg/mL]","MIC ([4]; strain 7033607097, MCR (−)) [µg/mL]","Colistin MIC in the presence of the compound [1, 9] [µg/mL]","Colistin MIC in the presence of the compound [1, 10] [µg/mL]","Colistin MIC in the presence of the compound [1, 11] [µg/mL]",also measured
CC1(C)C=Cc2c(ccc3c2OCC(c2ccc(OCCCCN(Cc4ccccn4)Cc4ccccn4)cc2OCCCCN(Cc2ccccn2)Cc2ccccn2)C3)O1 (stereo not shown) [GLA-DPA],–,–,–,–,–,–,–,–,–,–,–,–,"concentration at which the compound shows synergy with colistin ([1]; against mcr-1 bacteria): 5 µg/mL; synergy with colistin ([1]; against mcr-1 bacteria): restore the sensitivity of E. coli with mcr-1 to colistin; antimicrobial activity when used alone ([2]; colistin resistant bacteria, in words): limited antimicrobial activity"
CCN(CC)CCCCOc1ccc(C2COc3c(ccc4c3C=CC(C)(C)O4)C2)c(OCCCCN(CC)CC)c1 (stereo not shown) [LC105],25,25,–,–,–,–,–,–,–,–,–,–,"Colistin MIC in the presence of the compound ([1]; strain 6075066346, MCR(+), compound at 12.5 μg): 1.56 µg/mL; Colistin MIC in the presence of the compound ([1]; strain 6083655967, MCR(+), compound at 12.5 μg): 0.78 µg/mL; Colistin MIC in the presence of the compound ([1]; strain 6103645107, MCR(+), compound at 12.5 μg): 1.56 µg/mL; Colistin MIC in the presence of the compound ([1]; strain 6123520276, MCR(+), compound at 12.5 μg): 1.56 µg/mL; Colistin MIC in the presence of the compound ([1]; strain 7013177695, MCR(+), compound at 12.5 μg): 0.78 µg/mL; Colistin MIC in the presence of the compound ([1]; strain 7023436560, MCR(+), compound at 12.5 μg): 1.56 µg/mL; Colistin MIC in the presence of the compound ([1]; strain 7023444207, MCR(+), compound at 12.5 μg): 0.78 µg/mL; MIC ([2]; strain 6103645107, MCR (+)): 25 µg/mL; MIC ([2]; strain 6123520276, MCR (+)): 25 µg/mL; MIC ([2]; strain 7013177695, MCR (+)): 25 µg/mL; MIC ([2]; strain 7023436560, MCR (+)): 25 µg/mL; MIC [2, 5]: 25 µg/mL"
CCN(CC)CCCCOc1ccc(/C=C/C(=O)c2ccc(OCCCCN(CC)CC)cc2O)cc1 [LC107],>100,>100,–,–,–,–,–,–,–,–,–,–,"Colistin MIC in the presence of the compound ([1]; strain 6075066346, MCR(+), compound at 10 μg (Table 2a: 10 ug/ml)): 3.125 µg/mL; Colistin MIC in the presence of the compound ([1]; strain 6083655967, MCR(+), compound at 10 μg (Table 2a: 10 ug/ml)): 3.125 µg/mL; Colistin MIC in the presence of the compound ([1]; strain 6103645107, MCR(+), compound at 10 μg (Table 2a: 10 ug/ml)): 3.125 µg/mL; Colistin MIC in the presence of the compound ([1]; strain 6123520276, MCR(+), compound at 10 μg (Table 2a: 10 ug/ml)): 3.125 µg/mL; Colistin MIC in the presence of the compound ([1]; strain 7013177695, MCR(+), compound at 10 μg (Table 2a: 10 ug/ml)): 3.125 µg/mL; Colistin MIC in the presence of the compound ([1]; strain 7023436560, MCR(+), compound at 10 μg (Table 2a: 10 ug/ml)): 6.25 µg/mL; Colistin MIC in the presence of the compound ([1]; strain 7023444207, MCR(+), compound at 10 μg (Table 2a: 10 ug/ml)): 6.25 µg/mL; MIC ([2]; strain 6103645107, MCR (+)): >100 µg/mL; MIC ([2]; strain 6123520276, MCR (+)): >100 µg/mL; MIC ([2]; strain 7013177695, MCR (+)): >100 µg/mL; MIC ([2]; strain 7023436560, MCR (+)): >100 µg/mL; MIC [2, 5]: >100 µg/mL"
CCOC(=O)C(CCCNC(=N)N)NC(=O)COc1ccc(/C=C/C(=O)c2ccc(OCC(=O)NC(CCCNC(=N)N)C(=O)OCC)c(CC=C(C)C)c2O)cc1 (stereo not shown) [LC137],12.5,12.5,≤0.0975,≤0.0975,≤0.0975,12.5,12.5,12.5,12.5,–,–,–,"synergy with colistin ([1]; against mcr-1 bacteria): excellent synergy; Colistin MIC in the presence of the compound ([1]; strain 6083655967, MCR(+), compound at 3 μg): 0.78 µg/mL; Colistin MIC in the presence of the compound ([1]; strain 7103531927, MCR(+), compound at 3 μg): 0.39 µg/mL; Colistin MIC in the presence of the compound ([3]; strain 6083672926, MCR(−), compound at 3 μg): 6.25 µg/mL; Colistin MIC in the presence of the compound ([3]; strain 6083672926, MCR(−), compound at 4 μg): 0.195 µg/mL; Colistin MIC in the presence of the compound ([3]; strain 7023446108, MCR(−), compound at 3 μg): 0.39 µg/mL; Colistin MIC in the presence of the compound ([3]; strain 7023446108, MCR(−), compound at 4 μg): <0.0975 µg/mL; Colistin MIC in the presence of the compound ([3]; strain 7033607097, MCR(−), compound at 3 μg): 0.195 µg/mL; Colistin MIC in the presence of the compound ([3]; strain 7033607097, MCR(−), compound at 4 μg): <0.0975 µg/mL"
CC(C)=CCc1c(OCCN(C)CCCN(C)C)ccc(C(=O)/C=C/c2ccc(OCCN(C)CCCN(C)C)cc2)c1O [LC140],12.5,12.5,–,–,–,25,12.5,12.5,6.25,–,–,–,"Colistin MIC in the presence of the compound ([3]; strain 6083672926, MCR(−), compound at 2 μg): 1.56 µg/mL; Colistin MIC in the presence of the compound ([3]; strain 7023446108, MCR(−), compound at 2 μg): 1.56 µg/mL; Colistin MIC in the presence of the compound ([3]; strain 7033607097, MCR(−), compound at 2 μg): 1.56 µg/mL"
CC(C)=CCc1c(OCCNCCN)ccc(C(=O)/C=C/c2ccc(OCCNCCN)cc2)c1O [LC143],6.25,6.25,≤0.0975,≤0.0975,≤0.0975,12.5,12.5,6.25,6.25,–,–,–,–
CCN(CC)CCOc1ccc(/C=C/C(=O)c2ccc(OCCN(CC)CC)c(CC=C(C)C)c2O)cc1 [LC150],>50,>50,0.195,0.39,0.195,>50,50,50,50,0.39,0.195,0.39,–
CCN(CC)CCCOc1ccc(/C=C/C(=O)c2ccc(OCCCN(CC)CC)c(CC=C(C)C)c2O)cc1 [LC204],>50,>50,0.39,0.39,0.39,>50,>50,>50,>50,0.39,0.39,0.39,–
CC(C)=CCc1c(OCCCN2CCNCCNCCNCC2)ccc(C(=O)/C=C/c2ccc(OCCCN3CCNCCNCCNCC3)cc2)c1O [LC206],>50,>50,0.39,0.39,0.39,>50,>50,>50,>50,0.39,0.39,0.39,–
